Tests used:
[1] = system: Tau (AT100); experiment: Phosphorylation of Tau (AT100) in MAP-2 hippocampal neurons injured with Aβ1-42; assay type: cell-based, rat; conditions: Aβ1-42 injured hippocampal neurons; for effect on Tau hyperphosphorylation: Example 4
Experimental: (§1) The hippocampal neurons were exposed with Aβ solutions (see below) after 17 days of culture. The Aβ1-42 preparation was done following the procedure described by Callizot et al. (2013) J. Neurosci. Res. 91706-716. Briefly, Aβ1-42 peptide was dissolved in the defined culture medium mentioned above, at an initial concentration of 40 μM. This solution was gently agitated for 3 days at 37° C. in the dark and immediately used after being properly diluted in culture medium to the concentrations used (20 μM (plate 1) or 2.5 μM (plate 2) corresponding to 2 μM or 0.25 μM of oligomers (AβO) respectively).
(§2) Donecopride fumarate was solved in culture medium and preincubated 1 h before Aβ application. Aβ1-42 preparation was added to a final concentration of 20 or 2.5 μM (=2 μM or 0.25 μM of AβO, evaluated by automatic Western Blot) diluted in control medium in presence of Donecopride.
(§3) 24 hours after intoxication, the hippocampal neurons were fixed by a cold solution of ethanol (95%) and acetic acid (5%) for 5 min at −20° C. After permeabilization with 0.1% of saponin, cells were incubated for 2 h with:
b) mouse monoclonal antibody anti-phospho Tau (AT100) at dilution of 1/400 in PBS containing 1% fetal calf serum and 0.1% of saponin.
(§4) For each condition, 30 pictures (representative of the whole well area) per well were taken using ImageXpress (Molecular Devices) at 20× magnification. All images were taken with the same acquisition parameters. Analyses were performed automatically by using Custom Module Editor (Molecular Devices).
(§5) The following endpoints were assessed: • Total number of neurons (neuron survival, number of MAP-2 positive neurons) • Neurite network (in μm of MAP-2 positive neurons) • area of tau in neurons (μm^2, overlapping with MAP-2 positive neurons).
(§6) Injury: The hippocampal neurons were exposed with Aβ solutions (see below) after 17 days of culture. The Aβ1-42 preparation was done following the procedure described by Callizot et al. (2013) J. Neurosci. Res. 91:706-716. The batch number of the Aβ1-42 used in this study contains 10% of oligomers (quantification by WB as performed in Combes et al. (2015) J. Neurosci. Res. 93:633-643). Briefly, Aβ1-42 peptide was dissolved in the defined culture medium mentioned above, at an initial concentration of 40 μmol/1. This solution was gently agitated for 3 days at 37° C. in the dark and immediately used after being properly diluted in culture medium to the concentrations used (20 μmol/l or 2.5 μmol/l corresponding to 2 μmol/l or 0.25 μmol/l of oligomers (AβO) respectively). Aβ1-42 preparation was added to a final concentration of 20 or 2.5 μmol/l (respectively 2 μmol/l or 0.25 μmol/l of AβO, determined by automatic WB) diluted in control medium in presence of the compounds.
Immunostaining: MAP-2/AT100—After fixation and permeabilization, cells were incubated for 2 hours with: • a chicken polyclonal antibody anti microtubule-associated-protein 2 (MAP-2) at dilution of 1/1000 in PBS containing 1% fetal calf serum and 0.1% saponin (this antibody stains specifically cell bodies and neurites, allowing study of neuronal cell death and neurite network); and • a mouse monoclonal antibody anti-phospho Tau (AT100) at dilution of 1/100 in PBS containing 1% fetal calf serum and 0.1% saponin.
For each condition, 30 pictures (representative of the whole well area) per well were taken using ImageXpress® (Molecular Devices) with 20× magnification. All images were generated using the same acquisition parameters. From images, analyses were directly and automatically performed by Custom Module Editor® (Molecular Devices). The following read-outs were investigated: • Total number of neurons (neuron survival, number of MAP-2 positive neurons) • Neurite network (in μm of MAP-2 positive neurons) • Area of AT100 (μm^2, overlapping with MAP-2 positive neurons).

[2] = system: rat primary hippocampal neurons injured with Aβ 1-42; experiment: Survival and neurite network of MAP-2 neurons in primary hippocampal neurons injured with Aβ1-42; assay type: cell-based
Experimental: Rat hippocampal neurons were cultured as described by Callizot et al. (2013) J. Neurosci. Res. 91706-716. Pregnant female rats of 17 days gestation (Rats Wistar; Janvier Labs France) were killed using a deep anesthesia with CO2 chamber followed by a cervical dislocation. Then, fetuses were removed from the uterus and immediately placed in ice-cold L15 Leibovitz medium with a 2% penicillin (10,000 U/ml) and streptomycin (10 mg/ml) solution (PS) and 1% bovine serum albumin (BSA). Hippocampal neurons were treated for 20 min at 37° C. with a trypsin-EDTA solution at a final concentration of 0.05% trypsin and 0.02% EDTA. The dissociation was stopped by adding Dulbecco's modified Eagle's medium (DMEM) with 4.5 g/l of glucose, containing DNAse I grade II (final concentration 0.5 mg/ml) and 10% fetal calf serum (FCS). Cells were mechanically dissociated by three forced passages through the tip of a 10-ml pipette and then centrifuged at 515×g for 10 min at 4° C. The supernatant was discarded, and the pellet was resuspended in a defined culture medium consisting of Neurobasal medium with a 2% solution of B27 supplement, 2 mmol/l of L-glutamine, 2% of PS solution, and 10 ng/ml of brain-derived neurotrophic factor (BDNF). Viable cells were counted in a Neubauer cytometer, using the trypan blue exclusion test. Cells were seeded at a density of 20,000 per well in 96-well plates precoated with poly-L-lysine and cultured at 37° C. in an air (95%)-CO2 (5%) incubator. The medium was changed every 2 days.
as §1, §2
Donecopride fumarate (Donecopride) was tested on one culture in a 96 well plate (6 wells per conditions). The compound was preincubated one hour before Aβ application. The following conditions were assessed:
as §3
a) chicken polyclonal antibody anti microtubule-associated-protein 2 (MAP-2), diluted at 1/1000 in PBS containing 1% fetal calf serum and 0.1% of saponin (this antibody allows the specific staining of neuronal cell bodies and neurites; and allow the study of neuronal cell death and neurite network).
as §4, §5
All values are expressed as mean+/−SEM. Statistical analysis was performed by one-way ANOVA, followed by PLSD Fisher's test, p<0.05 were considered significant.
Rat hippocampal neurons were cultured as described by Callizot et al. (2013) J. Neurosci. Res. 91:706-716. […]

[3] = system: rat primary hippocampal neurons injured with Aβ 1-42; experiment: Number of synapses (PSD95/SYN overlap) in primary hippocampal neurons injured with Aβ1-42; assay type: cell-based
Experimental: as §1, §2, §3
a) mouse monoclonal antibody anti post synaptic density 95 kDa (PSD95) at a dilution of 1/100 in PBS containing 1% fetal calf serum and 0.1% of saponin.
b) Rabbit polyclonal antibody anti-synaptophysin (SYN) at the dilution of 1/100 in PBS containing 1% fetal calf serum and 0.1% of saponin.
For each condition, 40 pictures per well were taken using ImageXpress (Molecular Devices) with 40× magnification. All images were taken with the same acquisition parameters.
Synapses evaluation was performed automatically by using Custom module editor (Molecular Devices).
The following endpoints were assessed: • Total number of synapses (overlapping between PSD95/SYN).
To assess the formation of synapses, the distribution of PSD-95, a post-synaptic marker, and synaptophysin, a pre-synaptic marker, was studied. A structure positive for both PD-95 and synaptophysin staining was considered as a synapse.
as §6
Immunostaining: PSD95 and SYN—After fixation and permeabilization, cells were incubated for 2 hours with: • mouse monoclonal antibody anti post synaptic density 95 kDa (PSD95) at dilution of 1/200 in PBS containing 1% fetal calf serum and 0.1% saponin; • rabbit polyclonal antibody anti-synaptophysin (SYN) at the dilution of 1/100 in PBS containing 1% fetal calf serum and 0.1% saponin.
For each condition, 40 pictures per well were taken using ImageXpress (Molecular Devices) with 40× magnification. All images were taken with the same conditions. Synapses evaluation were performed automatically by using Custom Module Editor® (Molecular Devices). The following endpoints were assessed: • Number of synapses (overlapping between PSD95/SYN)

[4] = Aβ1-42 injured hippocampal neurons, Example 4

`COc1cc(N)c(Cl)cc1C(=O)CCC1CCN(CC2CCNCC2)CC1` [MR31176] was tested, and the “effect on Tau hyperphosphorylation” value [1] was “significant effect on Tau hyperphosphorylation was also observed at high concentration” and the “neuroprotective effect (survival, neurite and synaptic network)” value [2, 4] was “neuroprotective effect at high concentrations”.
`COc1cc(N)c(Cl)cc1C(=O)CCC1CCN(CC2CCCCCC2)CC1` [MR31192] was tested, and the “doses increasing the number of synapses” value ([3]; Aβ1-42 injured hippocampal neurons (FIG. 6)) was 1 to 5 nM, the “concentration with neuroprotective effect on synapses” value ([3]; Aβ1-42 injured hippocampal neurons, Example 5 (FIG. 10)) was 500 pM and the “effect on Tau hyperphosphorylation” value [1] was “important effect”. The “concentration with significant reduction of Tau hyperphosphorylation” value ([1]; Example 5 (FIG. 9D)) was 100 pM, the “doses with neuroprotective effect on survival” value ([2]; Aβ1-42 injured hippocampal neurons (FIG. 5A)) was 1 to 5 nM and the “neurite length normalized by number of neurons (neuritic growth)” value ([2]; Aβ1-42 injured hippocampal neurons (FIG. 5C)) was “neurotrophic effect”. The “effect on neurite network” value [2, 4] was “very large effect was also observed on neurite network at every tested dose”, the “neuroprotective effect (survival, neurite and synaptic network)” value [2, 4] was “very strong neuroprotective effect at very low doses” and the “concentration up to which active (survival and neurite network)” value ([2]; Aβ1-42 injured hippocampal neurons, Example 5 (FIG. 9A,B,C)) was ≤ 500 µM.
